# Paper PMC8776894 (Communications Biology, 2022)
# Legend:
# [1] = VK stability in plasma (HPLC); format: in vitro ADME; conditions: plasma (species not given), pH 7.4, 37 °C, 750 rpm, at 120 min; VK 0.735 mM (Fig. 1 legend 73.5 nM); HPLC-UV 215 nm, peak area relative to 0 min; at least triplicate
# Procedure: Proteolytic degradation of peptide-based drugs is generally considered as the main defect to limit systemic therapeutic applications. Therefore, high-performance liquid chromatography (HPLC) was used to assess the stability of VK in PBS or plasma at physiological pH (7.4) and temperature (37 °C). […] For neuropharmacology, crossing the BBB is a remarkable challenge, and VK was labeled with FITC in the N-terminus. FITC-labeled VK was then administered to stroke mice. After 30 min, these mice were imaged by an in vivo imaging system. […] Brains were collected at 0, 30, 60, 90, and 120 min and the distribution of VK was observed. […] To further evaluate whether VK was a cell-penetrating peptide, the oxygen-glucose deprivation/reoxygenation (OGD/R) model simulated I/R […] was established in HT22 hippocampal neuron cells and FITC-labeled VK was incubated for 120 min.
# VK in PBS or plasma was detected by quantifying the peak areas relative to the initial peak areas (0 min). All stability tests were performed at least in triplicate.
# [2] = tested on: MCAO/R mice, brain homogenate; test: Biochemical kits, energy metabolism in brain (ATP, lactic acid); format: in vivo, mouse
# Procedure: Mice were sacrificed under ether anesthesia 3 days after stroke. The brain was collected, weighed, and placed in a homogenizer for homogenization. Using 0.9% normal saline (NS) as a homogenization medium, a 10% tissue homogenate was prepared, centrifuged at 3500 rpm for 10 min, and the supernatant was taken. […] Kits for ATP, glutamic acid, glutathione, lactic acid, LPO, MDA, and SOD were purchased from Nanjingjiancheng Bioengineering Institute, and were measured as previously described for specification.
# [3] = tested on: primary cortical neurons and primary microglia; test: Primary neuron and microglia co-culture, OGD/R, ELISA of proinflammatory factors; format: cell-based, mouse
# Procedure: Histological analysis. Organs such as heart, liver, kidney, and brain were excised and fixed in 10% formaldehyde for histological analysis. Their organs were collected and fixed with 4% PFA for 12-18 h, followed by dehydrating using an automatic dehydrator (Leica ASP-300S, Germany) and embedding in paraffin. Then, each sample was coronally cut (4 µm) using a rotatory microtome (Leica RM2245, Germany). The […]
# Primary culture of neuron and microglia. Primary cortical neurons (1.0 × 10^5 cells per well in poly-L-lysine-coated 24-well plate) were obtained from fetal C57BL/6 mice of embryonic day 16–17.5, as previously reported1. After careful removal of meninges, cortical tissues were digested in dulbecco's modified eagle medium (DMEM, Gibco) containing 0.05% trypsin (Gibco) at 37 °C for 20 min. DMEM containing 10% FBS (Gibco) was then added to terminate the digestion. The mixture was homogenized by pipetting 120 times and was subsequently filtered with a 100-μm cell strainer (Biologix) and centrifuged at 1000 rpm for 5 min. Then, the cells were collected and resuspended by DMEM supplemented with 10% FBS (Gibco) and penicillin-streptomycin (Gibco).
# The suspension was seeded into 24-well plates (10^5 cells/ml), and 4 h later, the medium was changed with Neurobasal medium (Gibco) containing 1% […] and 2% B27 supplement. […]
# [4] = tested on: PI3K (p85α), AKT, IκBα, NF-κB, p38, ERK1/2 phosphorylation; test: Quantitative immunoblotting of brain; format: in vivo, mouse; conditions: MCAO/R mice, Western blot
# Procedure: Quantitative immunoblotting was accomplished as previously described. Anti-β-actin (Themo) was used as an internal loading control. Imaging of blots was performed using an AzureC300 with secondary antibodies(Themo). Analysis was carried out in Image Lab and signal intensities were normalized to loading controls, where applicable. The antibodies and their concentrations are listed as follows (antibody, dilution, catalog number, company, country): AKT (1:1000,4691, CST, USA), phospho-AKT (1:1000, 4046S, CST), phospho-p44/42 MAPK (Erk1/2) (Thr202/Tyr204) (1:1000, 4370S, CST), p44/42 MAPK (Erk1/2) (1:1000,4695S, CST), p38 MAPK (1:1000,8690S, CST), phospho-p38 MAPK (Thr180/Tyr182) (1:1000, 4511S, CST), NF-κB p65 (1:1000,8242S, CST), phospho-NF-κB p65 (Ser536) (1:1000,3033S, CST), IκBα (L35A5) Mouse mAb (1:1000, 4814S, CST), phospho-IκBα (Ser32) (1:1000,2859S, CST), PI3 kinase p85α (1:1000,11889S, CST), and phospho-PI3 kinase p85 (Tyr458)/p55 (Tyr199) (1:1000, 17366S, CST).
# rat CNS = conditions: injected directly into the rat CNS; cited from earlier work
# Source text: B1R and B2R both belong to the G protein-coupled receptor (GPCR) family, with B2R mediating most of the physiological functions of kinin. It has been increasingly appreciated that BK and Lys-BK could act as a ‘double-edged sword’. By inhibiting oxidative stress and apoptosis, the systemic or local delivery of human TK protects against mouse myocardial I/R injury via B2R. Similarly, we described that the neuroprotective effects of VK on stroke in mice was inhibited by HOE140, the specific antagonist of B2R. We also conducted the autodock experiment to evaluate the combination of VK and B2R. The ...
# [5] = tested on: HT22 hippocampal neuron cells (OGD/R); test: HT22 cell viability after OGD/R (CCK8)
substance,measurement,setting,value
"Gly-Arg-Pro-Hyp-Gly-Phe-Ser-Pro-Phe-Arg-Ile-Asp [VK, Vespakinin-M]",degradation of VK in plasma,[1],completely degraded
same,LD content in brain vs vehicle,[2],lower LD content
same,ATP activity in brain vs vehicle,[2]; VK-treated groups,increased ATP activity
same,"protection of neurons in co-culture with microglia, proinflammatory cytokines",[3],protects neurons
same,PI3K (p85α) and AKT phosphorylation,[4],stimulated MCAO-mediated PI3K (p85α) and AKT phosphorylation
same,phosphorylation levels of p38 and ERK1/2 vs vehicle,[4],partially downregulated
same,IκB and NF-κB phosphorylation levels,[4]; VK 300 µg/kg,reduced IκB and NF-κB levels
same,anti-nociceptive potency relative to BK,rat CNS,approximately three times more potent
same,cell activity of HT22 cells after OGD/R,[5],enhanced cell activity
